A word on the IC50: it is the concentration at which inhibition is half-maximal.

These results are taken from PMC7679387, “VZHE-039, a novel antisickling agent that prevents erythrocyte sickling under both hypoxic and anoxic conditions” (Scientific Reports, 2020).

A short description of data set [1]: Partitioning into RBCs in whole blood. In kind it is in vitro ADME. Particulars: 100–300 µM; normal whole human blood, 37 °C. On the procedure:
Toxicity concerns remain an important issue in the use of aromatic aldehydes in treating a chronic disease, such as SCD, especially as it involves modification of a large amount of in vivo present Hb. […] We evaluated key metrics such as in vitro RBC partitioning and ADME/safety profiles, in order to glean important safety insights. […] We also assessed VZHE-039 at 10 μM for its bi-directional cell permeability using Caco-2 cell monolayers[53],[54].
We incubated test compounds at expected blood concentrations (100–300 uM) with whole blood (mouse or human), after which we analyzed compound concentrations separately in plasma, whole blood and RBCs. Previously, we have established and validated reversed-phase HPLC and LC/MS methods for accurately measuring the compounds in blood. Validated reversed-phase HPLC was conducted on a Hitachi system, using a Waters C18 column, and a gradient of 0.1% Formic Acid in water (mobile phase A), and 0.1% Formic Acid in Acetonitrile (mobile phase B) at a flow rate of 1 mL/min in 12 min. UHPLC and LC/MS analyses were conducted at the Bioanalytical Core Facility at The Children’s Hospital of Philadelphia. […] 5 uL of each sample was injected at analyzed using a gradient of: (A) 5 mM ammonium acetate in deionized water (pH adjusted to 4.8 by formic acid); and (B) 5 mM ammonium acetate in (90:10) acetonitrile: water, at a flow rate of 0.5 mL/minute. […]

Data set [2] deals with T1, CYP2B6 (Homo sapiens, UniProt P20813).
T1 construct: 0.2–0.5 mg/mL pooled human liver microsomes; from tissue; host or cells: pooled human liver microsomes
T1 sequence (P20813 1-491): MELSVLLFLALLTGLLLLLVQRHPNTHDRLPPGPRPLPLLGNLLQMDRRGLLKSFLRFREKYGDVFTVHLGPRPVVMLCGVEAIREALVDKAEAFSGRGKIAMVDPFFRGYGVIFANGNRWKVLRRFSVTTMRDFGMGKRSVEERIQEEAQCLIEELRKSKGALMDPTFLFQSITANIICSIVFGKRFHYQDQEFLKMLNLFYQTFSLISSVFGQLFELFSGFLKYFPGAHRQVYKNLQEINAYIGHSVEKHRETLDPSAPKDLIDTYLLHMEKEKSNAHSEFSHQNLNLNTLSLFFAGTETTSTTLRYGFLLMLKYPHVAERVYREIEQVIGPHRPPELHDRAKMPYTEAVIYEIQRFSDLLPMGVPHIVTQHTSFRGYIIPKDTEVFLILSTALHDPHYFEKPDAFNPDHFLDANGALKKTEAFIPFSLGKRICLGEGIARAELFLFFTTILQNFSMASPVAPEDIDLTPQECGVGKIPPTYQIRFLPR
Description: In vitro CYP inhibition, pooled human liver microsomes. The format is in vitro ADME. The settings on record: substrate Bupropion. Here is the method:
Next, we tested VZHE-039 at concentrations of 0.1 to 100 µM, considered to be biologically relevant unbound plasma concentrations, for possible CYP inhibition using pooled human liver microsomes and isozyme-specific probe substrates (CYP1A2, CYP2C8, CYP2C9, CYP2C19, CYP2D6, CYP3A4, CYP2B6)[55].
VZHE-039 was studied for its inhibitory potential of seven major drug metabolizing human cytochrome P450 (CYP) enzymes (CYP1A2, CYP2C8, CYP2C9, CYP2C19, CYP2D6, CYP3A4, CYP2B6) using pooled human liver microsomes as published previously[26],[55]. The probe substrates include tacrine (CYP1A2), amodiaquine (CYP2C8), tolbutamide (CYP2C9), mephenytoin (CYP2C19), dextromethorphan (CYP2D6), midazolam (CYP3A4), testosterone (CYP3A4), and bupropion (CYP2B6). […] Assay conditions were optimized for each human cytochrome P450 substrate. The optimized reaction mixtures (200 μL) contained a final concentration of 0.2–0.5 mg/mL pooled human liver microsomes, 2 mM NADPH in 100 mM potassium phosphate, pH 7.4 buffer with 5 mM MgCl2, and VZHE-039 concentration of 0.1 to 100 µM. The assays were performed in duplicate in 96-well plates at 37 °C for 10–60 min. The reaction was terminated with addition of methanol, followed by incubation at 4 °C for 10 min and centrifuged at 4 °C for 10 min. Effect of VZHE-039 on formation of the respective probe substrate metabolites (velnacrine, N‐desethylamodiaquine, 4-hydroxytolbutamide, 4′-hydroxymephenytoin, dextrophan, 1′-hydroxymidazolam, and 6β-hydroxtestosterone and hydroxybupropion) were determined using LC–MS/MS.

As to `O=Cc1c(O)cccc1OCc1cccc(CO)n1` [VZHE-039, 2-((6-(Hydroxymethyl)pyridin-2-yl)methoxy)-6-hydroxybenzaldehyde], the “Partitioned into the RBC compartment” value in data set [1] was “approximately 85%”. For the same molecule, inhibition in data set [2] was half-maximal at 41.4 µM (IC50).
